Common to all, as to assay: relative viability (nuclei count vs DMSO), 5 days (fraction); higher = more cells survive
Compound in the assay “CUDC-101 + Alpelisib”: C#Cc1cccc(Nc2ncnc3cc(OC)c(OCCCCCCC(=O)NO)cc23)c1 [CUDC-101] + Cc1nc(NC(=O)N2CCC[C@H]2C(N)=O)sc1-c1ccnc(C(C)(C)C(F)(F)F)c1 [Alpelisib] (partner 2 µM)
Summed up: (§1)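 Each reported value is a median over duplicate plates. It expresses relative viability: treated-well nuclei count divided by vehicle-well nuclei count. Lung cancer cell lines in 1536-well plates were dosed by pin tool a day after seeding, alone with one drug or with a fixed anchor-drug dose plus five library-drug doses (not always all listed) in √10 steps, and nuclei were counted after 5 days.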

Compound in the assay “CUDC-101 + Tozasertib”: C#Cc1cccc(Nc2ncnc3cc(OC)c(OCCCCCCC(=O)NO)cc23)c1 [CUDC-101] + Cc1cc(Nc2cc(N3CCN(C)CC3)nc(Sc3ccc(NC(=O)C4CC4)cc3)n2)n[nH]1 [Tozasertib] (partner 0.1 µM)
Summed up:
as §1

Compound in the assay “CUDC-101 + AZD7762”: C#Cc1cccc(Nc2ncnc3cc(OC)c(OCCCCCCC(=O)NO)cc23)c1 [CUDC-101] + NC(=O)Nc1cc(-c2cccc(F)c2)sc1C(=O)N[C@H]1CCCNC1 [AZD7762] (partner 0.2 µM)
A digest of the protocol: as §1

Compound in assay [1]: C1=CC=C2C(=C1)N=C(S2)C(C#N)C3=NC(=NC=C3)NCCC4=CN=CC=C4 + NC(=O)Nc1cc(-c2cccc(F)c2)sc1C(=O)N[C@H]1CCCNC1 [AZD7762] (partner 0.2 µM)
Summed up:
as §1

NCI-H1299: the relative viability in the assay with CUDC-101 + Alpelisib (first compound 0.01 µM) came to 1.08; in the assay with CUDC-101 + Alpelisib (first compound 0.03162 µM), 1; with CUDC-101 + Alpelisib (first compound 0.1 µM) it was 1.11; in the assay with CUDC-101 + Alpelisib (first compound 0.3162 µM), 1.06; with CUDC-101 + Alpelisib (first compound 1 µM) it was 1.05.
Regarding NCI-H1563, the relative viability with CUDC-101 + Alpelisib (first compound 0.01 µM) was found to be 0.919; in the assay with CUDC-101 + Alpelisib (first compound 0.03162 µM), 0.815; with CUDC-101 + Alpelisib (first compound 0.1 µM), 0.925; in the assay with CUDC-101 + Alpelisib (first compound 0.3162 µM), 0.942; with CUDC-101 + Alpelisib (first compound 1 µM), 0.882.
Take NCI-H1623: the relative viability with CUDC-101 + Tozasertib (first compound 0.01 µM) amounted to 0.406; with CUDC-101 + Tozasertib (first compound 0.03162 µM), 0.379; with CUDC-101 + Tozasertib (first compound 0.1 µM) it was 0.389; in the assay with CUDC-101 + Tozasertib (first compound 0.3162 µM) it was 0.356; with CUDC-101 + Tozasertib (first compound 1 µM), 0.272.
On to NCI-H1648, for which the relative viability with CUDC-101 + AZD7762 (first compound 0.01 µM) was found to be 0.846; with CUDC-101 + AZD7762 (first compound 0.03162 µM), 0.566; in the assay with CUDC-101 + AZD7762 (first compound 0.1 µM), 0.646; with CUDC-101 + AZD7762 (first compound 0.3162 µM), 0.45; in the assay with CUDC-101 + AZD7762 (first compound 1 µM), 0.361; in assay [1] (first compound 0.01581 µM) it was 0.689. Besides, the relative viability was found to be 0.569 in assay [1] (first compound 0.1581 µM); 0.604 in assay [1] (first compound 0.5 µM); 0.64 with CUDC-101 + Tozasertib (first compound 0.01 µM); 0.636 with CUDC-101 + Tozasertib (first compound 0.1 µM); 0.362 with CUDC-101 + Tozasertib (first compound 0.3162 µM); 0.221 with CUDC-101 + Tozasertib (first compound 1 µM).
For the cell line NCI-H1650, the relative viability came to 0.398 with CUDC-101 + Tozasertib (first compound 0.01 µM); 0.318 with CUDC-101 + Tozasertib (first compound 0.03162 µM); 0.305 with CUDC-101 + Tozasertib (first compound 0.1 µM); 0.383 with CUDC-101 + Tozasertib (first compound 0.3162 µM); 0.267 in the assay with CUDC-101 + Tozasertib (first compound 1 µM).
Take NCI-H1703: the relative viability with CUDC-101 + AZD7762 (first compound 0.01 µM) is 0.141; with CUDC-101 + AZD7762 (first compound 0.03162 µM), 0.117; with CUDC-101 + AZD7762 (first compound 0.1 µM) it was 0.11; with CUDC-101 + AZD7762 (first compound 0.3162 µM), 0.116; with CUDC-101 + AZD7762 (first compound 1 µM) it was 0.125; in assay [1] (first compound 0.005 µM), 0.118. Moreover, the relative viability stood at 0.121 in assay [1] (first compound 0.01581 µM); 0.123 in assay [1] (first compound 0.05 µM); 0.109 in assay [1] (first compound 0.1581 µM); 0.108 in assay [1] (first compound 0.5 µM); 0.303 with CUDC-101 + Alpelisib (first compound 0.01 µM); 0.322 with CUDC-101 + Alpelisib (first compound 0.1 µM). The relative viability amounted to 0.53 with CUDC-101 + Alpelisib (first compound 0.3162 µM) and 0.506 with CUDC-101 + Alpelisib (first compound 1 µM).
Regarding NCI-H1792, the relative viability in the assay with CUDC-101 + AZD7762 (first compound 0.01 µM) stood at 0.789; in the assay with CUDC-101 + AZD7762 (first compound 0.03162 µM), 0.513; in the assay with CUDC-101 + AZD7762 (first compound 0.1 µM), 0.687; with CUDC-101 + AZD7762 (first compound 0.3162 µM), 0.653; with CUDC-101 + AZD7762 (first compound 1 µM), 0.423; in assay [1] (first compound 0.01581 µM) it was 0.631. Further, the relative viability was 0.8 in assay [1] (first compound 0.05 µM); 1.28 in assay [1] (first compound 0.1581 µM); 0.37 in assay [1] (first compound 0.5 µM); 0.702 with CUDC-101 + Alpelisib (first compound 0.01 µM); 0.57 in the assay with CUDC-101 + Alpelisib (first compound 0.03162 µM); 0.695 with CUDC-101 + Alpelisib (first compound 0.1 µM). The relative viability is 0.734 with CUDC-101 + Alpelisib (first compound 0.3162 µM) and 0.645 with CUDC-101 + Alpelisib (first compound 1 µM).
As for NCI-H2009, the relative viability in the assay with CUDC-101 + Tozasertib (first compound 0.01 µM) came to 0.8; in the assay with CUDC-101 + Tozasertib (first compound 0.03162 µM), 0.695; with CUDC-101 + Tozasertib (first compound 0.1 µM) it was 0.778; with CUDC-101 + Tozasertib (first compound 0.3162 µM) it was 0.801; with CUDC-101 + Tozasertib (first compound 1 µM), 0.639; in the assay with CUDC-101 + Alpelisib (first compound 0.01 µM) it was 1.13. Besides, the relative viability with CUDC-101 + Alpelisib (first compound 0.03162 µM) came to 1.1; in the assay with CUDC-101 + Alpelisib (first compound 0.1 µM), 1.14; in the assay with CUDC-101 + Alpelisib (first compound 0.3162 µM), 1.07; with CUDC-101 + Alpelisib (first compound 1 µM), 1.04.
As to NCI-H2023, the relative viability in the assay with CUDC-101 + Tozasertib (first compound 0.01 µM) was found to be 0.336; in the assay with CUDC-101 + Tozasertib (first compound 0.03162 µM), 0.337; with CUDC-101 + Tozasertib (first compound 0.1 µM), 0.363; with CUDC-101 + Tozasertib (first compound 0.3162 µM), 0.328; with CUDC-101 + Tozasertib (first compound 1 µM), 0.293; with CUDC-101 + Alpelisib (first compound 0.01 µM) it was 0.552. Besides, the relative viability with CUDC-101 + Alpelisib (first compound 0.03162 µM) was found to be 0.581; in the assay with CUDC-101 + Alpelisib (first compound 0.1 µM) it was 0.564; in the assay with CUDC-101 + Alpelisib (first compound 0.3162 µM) it was 0.663; with CUDC-101 + Alpelisib (first compound 1 µM), 0.565.
As for NCI-H2228, the relative viability with CUDC-101 + Tozasertib (first compound 0.01 µM) was 0.255; with CUDC-101 + Tozasertib (first compound 0.03162 µM), 0.237; in the assay with CUDC-101 + Tozasertib (first compound 0.1 µM), 0.263; with CUDC-101 + Tozasertib (first compound 0.3162 µM) it was 0.317; with CUDC-101 + Tozasertib (first compound 1 µM) it was 0.194; in the assay with CUDC-101 + Alpelisib (first compound 0.01 µM), 0.795. The relative viability was found to be 0.802 with CUDC-101 + Alpelisib (first compound 0.03162 µM), 0.625 with CUDC-101 + Alpelisib (first compound 0.1 µM), 0.563 in the assay with CUDC-101 + Alpelisib (first compound 0.3162 µM) and 0.491 in the assay with CUDC-101 + Alpelisib (first compound 1 µM).
Regarding NCI-H2342, the relative viability with CUDC-101 + AZD7762 (first compound 0.01 µM) is 0.507; in the assay with CUDC-101 + AZD7762 (first compound 0.03162 µM), 0.459; with CUDC-101 + AZD7762 (first compound 0.1 µM), 0.51; with CUDC-101 + AZD7762 (first compound 0.3162 µM), 0.407; with CUDC-101 + AZD7762 (first compound 1 µM) it was 0.353; in assay [1] (first compound 0.005 µM) it was 0.546. The relative viability in assay [1] (first compound 0.01581 µM) is 0.484; in assay [1] (first compound 0.05 µM), 0.49; in assay [1] (first compound 0.1581 µM) it was 0.583; in assay [1] (first compound 0.5 µM), 0.467; in the assay with CUDC-101 + Tozasertib (first compound 0.01 µM), 0.592; with CUDC-101 + Tozasertib (first compound 0.03162 µM) it was 0.55. For the same cell line, the figures for the relative viability in the assay with CUDC-101 + Tozasertib (first compound 0.1 µM), with CUDC-101 + Tozasertib (first compound 0.3162 µM) and with CUDC-101 + Tozasertib (first compound 1 µM) were 0.474, 0.437 and 0.453, respectively.
In the case of SK-LU-1, the relative viability with CUDC-101 + Tozasertib (first compound 0.01 µM) came to 0.336; in the assay with CUDC-101 + Tozasertib (first compound 0.03162 µM) it was 0.322; in the assay with CUDC-101 + Tozasertib (first compound 0.1 µM), 0.367; with CUDC-101 + Tozasertib (first compound 0.3162 µM) it was 0.309; with CUDC-101 + Tozasertib (first compound 1 µM), 0.269; with CUDC-101 + Alpelisib (first compound 0.01 µM), 1.18. Also, the relative viability turned out to be 1.05 with CUDC-101 + Alpelisib (first compound 0.03162 µM), 1.11 in the assay with CUDC-101 + Alpelisib (first compound 0.1 µM), 0.812 with CUDC-101 + Alpelisib (first compound 0.3162 µM) and 0.505 in the assay with CUDC-101 + Alpelisib (first compound 1 µM).
As to SK-MES-1, the relative viability amounted to 0.976 with CUDC-101 + Tozasertib (first compound 0.01 µM); 0.945 with CUDC-101 + Tozasertib (first compound 0.03162 µM); 0.942 in the assay with CUDC-101 + Tozasertib (first compound 0.1 µM); 0.809 with CUDC-101 + Tozasertib (first compound 0.3162 µM); 0.502 in the assay with CUDC-101 + Tozasertib (first compound 1 µM); 0.798 with CUDC-101 + Alpelisib (first compound 0.01 µM). Further, the relative viability in the assay with CUDC-101 + Alpelisib (first compound 0.03162 µM) worked out at 0.877; with CUDC-101 + Alpelisib (first compound 0.1 µM), 0.879; with CUDC-101 + Alpelisib (first compound 0.3162 µM), 0.874; in the assay with CUDC-101 + Alpelisib (first compound 1 µM), 0.592.
Turning to SW 900, the relative viability with CUDC-101 + AZD7762 (first compound 0.01 µM) came to 0.57; with CUDC-101 + AZD7762 (first compound 0.03162 µM) it was 0.476; with CUDC-101 + AZD7762 (first compound 0.1 µM), 0.568; with CUDC-101 + AZD7762 (first compound 0.3162 µM), 0.716; with CUDC-101 + AZD7762 (first compound 1 µM), 0.555; in assay [1] (first compound 0.005 µM) it was 0.693. The relative viability in assay [1] (first compound 0.01581 µM) came out at 0.634; in assay [1] (first compound 0.05 µM) it was 0.548; in assay [1] (first compound 0.1581 µM), 0.622; in assay [1] (first compound 0.5 µM) it was 0.533; with CUDC-101 + Tozasertib (first compound 0.01 µM), 0.471; in the assay with CUDC-101 + Tozasertib (first compound 0.03162 µM) it was 0.633. Besides, the relative viability stood at 0.566 in the assay with CUDC-101 + Tozasertib (first compound 0.1 µM), 0.526 with CUDC-101 + Tozasertib (first compound 0.3162 µM) and 0.519 with CUDC-101 + Tozasertib (first compound 1 µM).
With SW 1573, the relative viability was 0.211 with CUDC-101 + Tozasertib (first compound 0.01 µM); 0.182 with CUDC-101 + Tozasertib (first compound 0.03162 µM); 0.173 with CUDC-101 + Tozasertib (first compound 0.1 µM); 0.173 in the assay with CUDC-101 + Tozasertib (first compound 0.3162 µM); 0.131 in the assay with CUDC-101 + Tozasertib (first compound 1 µM); 0.861 with CUDC-101 + Alpelisib (first compound 0.01 µM). Also, the relative viability was 0.797 with CUDC-101 + Alpelisib (first compound 0.03162 µM), 0.852 with CUDC-101 + Alpelisib (first compound 0.1 µM), 1.08 in the assay with CUDC-101 + Alpelisib (first compound 0.3162 µM) and 0.739 with CUDC-101 + Alpelisib (first compound 1 µM).

The values are drawn from the supplement of paper PMC10307832.
